Assay results as given in patent publication US20210253562A1, “ACYLSUFONAMIDE COMPOUNDS USEFUL AS EP3 RECEPTOR ANTAGONISTS” (Janssen Pharmaceutica NV, priority 2018, published 2021).
Read-outs that look alike come from different tables or passages of the source.

Assays:
[1] = biological target: T1, EP3 membrane (EP3 receptor) (Homo sapiens, UniProt P43115); assay: [3H]-PGE2 binding; EP3 competition binding (SPA)
T1 construct: purchased Millipore HTS092M
T1 sequence (P43115 1-390): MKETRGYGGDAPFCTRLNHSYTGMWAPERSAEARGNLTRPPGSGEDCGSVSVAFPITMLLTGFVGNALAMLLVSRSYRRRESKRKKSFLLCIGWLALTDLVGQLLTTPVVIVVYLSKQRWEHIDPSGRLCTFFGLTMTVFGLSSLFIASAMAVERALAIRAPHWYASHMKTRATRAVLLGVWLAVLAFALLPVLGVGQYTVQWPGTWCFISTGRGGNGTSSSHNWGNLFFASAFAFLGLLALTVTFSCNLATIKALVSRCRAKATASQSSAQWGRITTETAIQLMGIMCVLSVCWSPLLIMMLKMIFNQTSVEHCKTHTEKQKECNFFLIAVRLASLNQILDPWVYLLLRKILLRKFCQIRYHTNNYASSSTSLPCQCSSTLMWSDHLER
Summary of the method: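 Ki derived from one-site nonlinear regression of scintillation proximity counts after 2 h room-temperature equilibration. Serially diluted (1:3) compounds competed against [3H]-PGE2 (2 nM) for EP3 receptor membranes (2 μg/well) in pH 7.4 Tris buffer with 10 mM MgCl2, 1 mM EDTA, 0.1% DMSO.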

[2] = biological target: T2, CHO cells over-expressing the EP3 receptor (Homo sapiens, UniProt P43115); assay: CHO cell cAMP assay; EP3 cAMP antagonist dose response (sulprostone reference), HTRF; assay type: cell-based; details: sulprostone 700 nM (EC80) and FSK 2 μM (EC70); read-out: CHO_cAMP IC50
T2 construct: expressed in transfected cells; host or cells: CHO cells
T2 sequence (P43115 1-390): T1 sequence (P43115 1-390)
Summary of the method: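 EP3-overexpressing CHO cells pre-incubated with test compound, then stimulated 30 min at 37 °C with FSK (2 μM, EC70) plus sulprostone (700 nM, EC80); antagonism seen as restored cAMP. cAMP measured by HTRF 665/615 ratio, converted via on-plate standard curve. IC50 from Hill fit of 11-point dosing.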

O=C(NC/C=C1\CCCc2cnn(-c3cccc4ccccc34)c21)NS(=O)(=O)c1cc(Cl)c(Cl)s1 [Compound #78, (E)-4,5-dichloro-N-((2-(1-(naphthalen-1-yl)-1,4,5,6-tetrahydro-7H-indazol-7-ylidene)ethyl)carbamoyl)thiophene-2-sulfonamide]
Ki [1]: 1 nM | IC50 [2]: 10 nM

O=C(NC/C=C1\CCCc2cnn(-c3ccc4ccccc4c3)c21)NS(=O)(=O)c1cc(Cl)c(Cl)s1 [Compound #79, (E)-4,5-dichloro-N-((2-(1-(naphthalen-2-yl)-1,4,5,6-tetrahydro-7H-indazol-7-ylidene)ethyl)carbamoyl)thiophene-2-sulfonamide]
Ki ([1]; unit nM): 0.4 nM | IC50 [2]: 2 nM

CC(C)Cn1ncc2c1/C(=C/CNC(=O)NS(=O)(=O)c1ccc(Cl)cc1)CCC2 [Compound #80, (E)-4-chloro-N-((2-(1-isobutyl-1,4,5,6-tetrahydro-7H-indazol-7-ylidene)ethyl)carbamoyl)benzenesulfonamide]
Ki [1]: 920 nM | IC50 [2]: 4400 nM

O=C(NS(=O)(=O)c1ccc(Cl)cc1)OC/C=C1\c2c(cnn2Cc2ccc(Cl)cc2Cl)CCC1(F)F [Compound #81, (E)-2-(1-(2,4-dichlorobenzyl)-6,6-difluoro-1,4,5,6-tetrahydro-7H-indazol-7-ylidene)ethyl ((4-chlorophenyl)sulfonyl)carbamate]
Ki [1]: > 10000 nM | IC50 [2]: 14100 nM

O=C(NS(=O)(=O)c1ccc(Cl)cc1)OC/C=C1/c2c(cnn2Cc2ccc(Cl)cc2Cl)CCC1(F)F [Compound #82, (Z)-2-(1-(2,4-dichlorobenzyl)-6,6-difluoro-1,4,5,6-tetrahydro-7H-indazol-7-ylidene)ethyl ((4-chlorophenyl)sulfonyl)carbamate]
Ki [1]: 106 nM | IC50 [2]: 2600 nM

O=C(NC/C(F)=C1\COCc2cnn(Cc3ccc(Cl)cc3Cl)c21)NS(=O)(=O)c1ccc(Cl)cc1 [Compound #83, (E)-4-chloro-N-((2-(1-(2,4-dichlorobenzyl)-1,4-dihydropyrano[4,3-c]pyrazol-7(6H)-ylidene)-2-fluoroethyl)carbamoyl)benzenesulfonamide]
Ki [1]: 97 nM | IC50 [2]: 266 nM

O=C(NC/C=C1\CCCc2cnn(-c3ccc(Cl)cc3Cl)c21)NS(=O)(=O)c1cc(Cl)c(Cl)s1 [Compound #84, (E)-4,5-dichloro-N-((2-(1-(2,4-dichlorophenyl)-1,4,5,6-tetrahydro-7H-indazol-7-ylidene)ethyl)carbamoyl)thiophene-2-sulfonamide]
Ki [1]: 1 nM | IC50 [2]: 5 nM

O=C(NC/C=C1\CCCc2cnn(-c3ccc(C(F)(F)F)cc3)c21)NS(=O)(=O)c1cc(Cl)c(Cl)s1 [Compound #85, (E)-4,5-dichloro-N-((2-(1-(4-(trifluoromethyl)phenyl)-1,4,5,6-tetrahydro-7H-indazol-7-ylidene)ethyl)carbamoyl)thiophene-2-sulfonamide]
Ki ([1]; unit nM): 0.4 nM | IC50 [2]: 4 nM

O=C(NC/C(F)=C1\CCCc2cnn(Cc3ccc(Cl)cc3Cl)c21)NS(=O)(=O)c1ccc(Cl)cc1 [Compound #86, (Z)-4-chloro-N-((2-(1-(2,4-dichlorobenzyl)-1,4,5,6-tetrahydro-7H-indazol-7-ylidene)-2-fluoroethyl)carbamoyl)benzenesulfonamide]
Ki [1]: 28 nM | IC50 [2]: 69 nM

O=C(NC/C=C1\CCCc2cn(Cc3ccc4ccccc4c3)nc21)NS(=O)(=O)c1cc(Cl)c(Cl)s1 [Compound #87, (E)-4,5-dichloro-N-((2-(2-(naphthalen-2-ylmethyl)-2,4,5,6-tetrahydro-7H-indazol-7-ylidene)ethyl)carbamoyl)thiophene-2-sulfonamide]
Ki [1]: 110 nM | IC50 [2]: 435 nM

O=C(NC/C=C1\CCCc2cnn(Cc3ccc4ccccc4c3)c21)NS(=O)(=O)c1cc(Cl)c(Cl)s1 [Compound #88, (E)-4,5-dichloro-N-((2-(1-(naphthalen-2-ylmethyl)-1,4,5,6-tetrahydro-7H-indazol-7-ylidene)ethyl)carbamoyl)thiophene-2-sulfonamide]
Ki [1]: 104 nM | IC50 [2]: 554 nM

COc1ccc(Cl)cc1S(=O)(=O)NC(=O)NC/C(F)=C1\CCCc2cnn(Cc3ccc(Cl)cc3Cl)c21 [Compound #89, (Z)-5-chloro-N-((2-(1-(2,4-dichlorobenzyl)-1,4,5,6-tetrahydro-7H-indazol-7-ylidene)-2-fluoroethyl)carbamoyl)-2-methoxybenzenesulfonamide]
Ki [1]: 26 nM | IC50 [2]: 160 nM

COc1ccc(F)cc1S(=O)(=O)NC(=O)NC/C(F)=C1\CCCc2cnn(Cc3ccc(Cl)cc3Cl)c21 [Compound #90, (Z)—N-((2-(1-(2,4-dichlorobenzyl)-1,4,5,6-tetrahydro-7H-indazol-7-ylidene)-2-fluoroethyl)carbamoyl)-5-fluoro-2-methoxybenzenesulfonamide]
Ki [1]: 37 nM | IC50 [2]: 272 nM

O=C(NC/C(F)=C1\CCCc2cnn(Cc3ccc(Cl)cc3Cl)c21)NS(=O)(=O)c1cccc(Cl)c1 [Compound #91, (Z)-3-chloro-N-((2-(1-(2,4-dichlorobenzyl)-1,4,5,6-tetrahydro-7H-indazol-7-ylidene)-2-fluoroethyl)carbamoyl)benzenesulfonamide]
Ki [1]: 18 nM | IC50 [2]: 34 nM

O=C(NC/C=C1\CCCc2cnn(-c3cccc(C(F)(F)F)c3)c21)NS(=O)(=O)c1cc(Cl)c(Cl)s1 [Compound #92, (E)-4,5-dichloro-N-((2-(1-(3-(trifluoromethyl)phenyl)-1,4,5,6-tetrahydro-7H-indazol-7-ylidene)ethyl)carbamoyl)thiophene-2-sulfonamide]
Ki [1]: 17 nM | IC50 [2]: 214 nM

O=C(C/C(F)=C1\CCCc2cnn(Cc3ccc(Cl)cc3Cl)c21)NS(=O)(=O)c1cc(Cl)c(Cl)s1 [Compound #93, (Z)-3-(1-(2,4-dichlorobenzyl)-1,4,5,6-tetrahydro-7H-indazol-7-ylidene)-N-((4,5-dichlorothiophen-2-yl)sulfonyl)-3-fluoropropanamide]
Ki [1]: 6 nM | IC50 [2]: 17 nM

O=C(NC/C=C1\CCCc2cnn(-c3ncc(Br)cn3)c21)NS(=O)(=O)c1ccc(Cl)cc1 [Compound #94, (E)-N-((2-(1-(5-bromopyrimidin-2-yl)-1,4,5,6-tetrahydro-7H-indazol-7-ylidene)ethyl)carbamoyl)-4-chlorobenzenesulfonamide]
Ki [1]: 750 nM | IC50 [2]: 11100 nM

O=C(NC/C(F)=C1/CCCc2onc(-c3ccc(Cl)cc3)c21)NS(=O)(=O)c1ccc(Cl)cc1 [Compound #96, (E)-4-chloro-N-((2-(3-(4-chlorophenyl)-6,7-dihydrobenzo[d]isoxazol-4(5H)-ylidene)-2-fluoroethyl)carbamoyl)benzenesulfonamide]
Ki [1]: > 10000 nM | IC50 [2]: > 20000 nM

O=C(NC/C(F)=C1\CCCc2onc(-c3ccc(Cl)cc3)c21)NS(=O)(=O)c1ccc(Cl)cc1 [Compound #97, (Z)-4-chloro-N-((2-(3-(4-chlorophenyl)-6,7-dihydrobenzo[d]isoxazol-4(5H)-ylidene)-2-fluoroethyl)carbamoyl)benzenesulfonamide]
Ki [1]: 4900 nM | IC50 [2]: > 20000 nM

O=C(NC/C(F)=C1\CCCCc2cnn(Cc3ccc(Cl)cc3Cl)c21)NS(=O)(=O)c1ccc(Cl)cc1 [Compound #98, (Z)-4-chloro-N-((2-(1-(2,4-dichlorobenzyl)-4,5,6,7-tetrahydrocyclohepta[c]pyrazol-8(1H)-ylidene)-2-fluoroethyl)carbamoyl)benzenesulfonamide]
Ki [1]: 171 nM | IC50 [2]: 120 nM

O=C(NC/C=C1\CCCc2cnn(-c3ccc(-c4ccccc4)cc3)c21)NS(=O)(=O)c1cc(Cl)c(Cl)s1 [Compound #99, (E)-N-((2-(1-([1,1′-biphenyl]-4-yl)-1,4,5,6-tetrahydro-7H-indazol-7-ylidene)ethyl)carbamoyl)-4,5-dichlorothiophene-2-sulfonamide]
Ki [1]: 1 nM | IC50 [2]: 9 nM

O=C(NC/C(F)=C1/c2c(cnn2Cc2ccc(Cl)cc2Cl)CCC1F)NS(=O)(=O)c1cc(Cl)c(Cl)s1 (stereo not drawn) [Compound #100, (E)-4,5-dichloro-N-((2-(1-(2,4-dichlorobenzyl)-6-fluoro-1,4,5,6-tetrahydro-7H-indazol-7-ylidene)-2-fluoroethyl)carbamoyl)thiophene-2-sulfonamide]
Ki [1]: 3 nM | IC50 [2]: 7 nM

O=C(NC/C(F)=C1/c2c(cnn2Cc2ccc(Cl)cc2Cl)CCC1F)NS(=O)(=O)c1ccc(Cl)cc1 (stereo not drawn) [Compound #101, (E)-4-chloro-N-((2-(1-(2,4-dichlorobenzyl)-6-fluoro-1,4,5,6-tetrahydro-7H-indazol-7-ylidene)-2-fluoroethyl)carbamoyl)benzenesulfonamide]
Ki [1]: 53 nM | IC50 [2]: 144 nM

O=C(NC/C(F)=C1/CCCCc2cnn(Cc3ccc(Cl)cc3Cl)c21)NS(=O)(=O)c1ccc(Cl)cc1 [Compound #102, (E)-4-chloro-N-((2-(1-(2,4-dichlorobenzyl)-4,5,6,7-tetrahydrocyclohepta[c]pyrazol-8(1H)-ylidene)-2-fluoroethyl)carbamoyl)benzenesulfonamide]
Ki [1]: > 10000 nM | IC50 [2]: > 20000 nM
